Laboratory results published in US20230293628A1, “MEANS AND METHODS FOR TREATING BACTERIAL INFECTIONS” (priority 2016, published 2023).
Values after ≈ are worked out from the molar mass of the structure shown. Read-outs that look alike come from different tables or passages of the source. Where no end group is shown, it is not given here.

What was measured:
[1] = tested on: Escherichia coli ESBL (CUN E20)
[2] = tested on: TLR2/6-activated keratinocytes; assay: FSL-1 (TLR2/6)-activated keratinocytes: IL-8 ELISA, Western Blot, real-time PCR; type: cell-based, human; details: FSL-1 stimulation, 10:1 weight ratio
Protocol: Thus, the effect of Pep19-2.5 and Pep19-4LF on the toxin (pathogenicity factor) FSL-1 (fibroblast-stimulating lipopeptide), a TLR-2/6 activating compound, was checked.
(§1) The potential of Peptide 19-2.5 and the structurally related compound Peptide 19-4LF has been investigated for their therapeutic application in bacterial skin infections. Primary human keratinocytes responded to TLR2 (FSL-1) but not TLR4 (LPS) activation by increased IL-8 production which was determined with ELISA. […] To detect phosphorylation of the intracellular proteins Western Blot was performed. Gene expression was evaluated by quantitative real-time PCR. […] In addition to acute inflammation, bacterial infections often result in impaired wound healing. Since re-epithelialization is a critical step in wound repair, we tested whether Peptide 19-2.5 affects keratinocyte migration.

[3] = tested on: Pseudomonas aeruginosa biofilm; assay: Inactivation of biofilm from Pseudomonas aeruginosa with GFP-labelled bacteria; type: cell-based; details: short-time treatment (1 h), FIG. 2
Protocol: FIG. 2: Inactivation of a biofilm from Pseudomonas aeruginosa with GFP-labelled bacteria (GFP: Green-Fluorescent Protein). Living bacteria: white, inactivated bacteria: dark.
The micrographics shown that only a small fraction of the surface was covered by live bacteria forming a biofilm after 1 h (B) compared with the untreated one (A).

[4] = tested on: Pseudomonas aeruginosa PS4; assay: CDC Biofilm Reactor, inhibition of biofilm formation; type: cell-based; details: with and without levofloxacin, 24 hours treatment, FIG. 8
Protocol: The data shown in FIG. 8 were obtained in experiments carried out using the Center for Disease Control (CDC) Biofilm Reactor (CBR). In this case, clinical strain Pseudomonas aeruginosa PS4 was incubated in TSB under continuous shaking for 24 hours, followed by additional 24 hours growth with a flow of diluted TSB. Samples received treatments during another 24 hours dissolved at Phosphate Buffer at 37° C. Biofilms were scraped and serially diluted prior to plating and counting. For confocal microscopy, Biofilms were stained using Live/Death BacLight (Life technologies, Carlsbad, California, USA).

keratinocyte migration = assay: Scratch assay, keratinocyte migration; type: cell-based
Protocol: as §1

[5] = tested on: open wound with wound infections (Staphylococcus aureus, Parvimonas micra, β-hemolysing Streptococcus, Pseudomonas aeruginosa); assay: Healing attempt, infected open wound of a patient, topical salve; type: in vivo; details: for Effect on wound: topical
Source text: A patient had—due to a cured tumor in the back—an open wound (see picture at t=0). […] Therefore, a conservative wound treatment was initiated. The wound's localization required the involvement of an ambulant nursing service who took over the daily care. Nevertheless, in sporadic intervals, wound infections occurred which inhibited the healing process. […] Over 6 years, all therapeutical approaches with different antibiotics and topically applied salve formulations failed. In November 2014 the patient was informed about the possibility of a, healing attempt′, to which they agreed. […] This therapeutically effect can be explained only from the use of the Aspidasept® salve, since all other parameters were not changed. The wound is now completely closed.

[6] = tested on: M. tuberculosis-induced TNF formation of human peripheral blood mononuclear cells; assay: M. tuberculosis supernatant-induced TNFα formation in human mononuclear cells (ELISA); type: cell-based; details: for Inhibition of M. tuberculosis-induced TNF formation (in words): FIG. 5
[7] = tested on: monocyte-derived dendritic cells (MoDCs); assay: LPS-stimulated monocyte-derived dendritic cells: maturation, migration, IL-6; type: cell-based
Source text: In monocyte-derived dendritic cells (MoDCs), Pep19-2.5 inhibited LPS-mediated upregulation of the maturation marker CD83 and the co-stimulatory molecule CD80 at a peptide:LPS weight ratio of 1000:1.
as §1

Compound	MIC ([1]; individual agents, Mueller-Hinton medium) [µg/mL]	MIC ([1]; ESBL (CUN E20)) [µg/mL]	IL-8 release / IL-8 inducing activity of FSL-1 [2]	Inactivation of biofilm bacteria [3]	Inhibition of biofilm formation [4]	Concentration promoting cell migration and accelerating artificial wound closure (as low as) (keratinocyte migration) [ng/mL]	Potency in promoting cell migration relative to TGF-β (keratinocyte migration)	Effect on wound ([5]; 0.1% in salve (DAC-base cream))	Reduction of the diameter of the wound ([5]; 1% in salve, after 2 months) [%]	Wound healing ([5]; 1% in salve, after 6 months)	Effect on wound ([5]; 1% in salve)	Inhibition of TNFα formation ([6]; 10 μg/ml peptide)	Inhibition of M. tuberculosis-induced TNF formation (in words) [6]	Inhibition of M. tuberculosis-induced TNF formation (in words) ([6]; listed as Pep19-2.5)	LPS-induced migration of MoDCs and CCR7 gene expression ([7]; FIG. 6)	LPS-mediated upregulation of maturation marker CD83 and co-stimulatory molecule CD80 ([7]; peptide:LPS weight ratio of 1000:1)
CO/N=C(\C(=O)N[C@@H]1C(=O)N2C(C(=O)O)=C(CSc3nc(=O)c(O)nn3C)CS[C@H]12)c1csc(N)n1 [Ceftriaxon, Ceftriaxone, reference compound]	16 (≈ 28.9 µM)															
GKKYRRFRWKFKGKLFLFG [Peptide 19-4LF, GKKYRRFRWKFKGKLFLFG]		16	reduce IL-8 release	most bacteria are inactivated	Inhibition of biofilm formation											
N=C(N)NCCC[C@H](NC(=O)[C@H](Cc1ccc(O)cc1)NC(=O)[C@H](CCCCN)NC(=O)[C@H](CCCCN)NC(=O)[C@H](CS)NC(=O)CN)C(=O)N[C@@H](CCCNC(=N)N)C(=O)N[C@@H](Cc1ccccc1)C(=O)N[C@@H](CCCNC(=N)N)C(=O)N[C@@H](Cc1c[nH]c2ccccc12)C(=O)N[C@@H](CCCCN)C(=O)N[C@@H](Cc1ccccc1)C(=O)N[C@@H](CCCCN)C(=O)NCC(=O)N[C@@H](CCCCN)C(=O)N[C@@H](Cc1ccccc1)C(=O)N[C@@H](Cc1c[nH]c2ccccc12)C(=O)N[C@@H](Cc1ccccc1)C(=O)N[C@@H](Cc1c[nH]c2ccccc12)C(=O)NCC(=O)O [Peptide 19-2.5]		128 (≈ 47.2 µM)	reduce IL-8 release			1	equipotent to TGF-β	no effect	50	completely healed	significant effect	more than 50%	Does dependent inhibition	strongest anti-TNFα activity	completely blocked	inhibited
